Experimental findings from patent US20230053688A1, “METHODS TO ALTER LATENCY IN EBV+ MALIGNANCIES” (Cornell University, priority 2020, published 2023) are described below.

Counter-ions that a name gives are not always drawn. Like-named read-outs stand apart in the source and are kept apart here.

In the test the test system is LMP1 expression in Kem I cells. The test is described as follows: microbe, parasite or virus in culture. The format is cell-based, EBV. To be noted: for Average LMP1 Fold Increase / Replicate 1-LMP1 Fold Increase / Replicate 2-LMP1 Fold Increase: Kem I cells, 2.5 uM, 48 hours; for Average LMP1 Fold Increase: average of replicates 1 and 2; for Replicate 1-LMP1 Fold Increase / Replicate 2-LMP1 Fold Increase: fold change in LMP1 transcript vs vehicle; for fold induction at 2.5 µM / fold induction at 1 µM: human gammaherpesvirus 4, 48 h.

The mark [1] stands for this setting: read-out: Average LMP1 Fold Increase, Kem I cells, 2.5 uM, 48 hours, average of replicates 1 and 2.
[2] abbreviates: read-out: Replicate 1-LMP1 Fold Increase, Kem I cells, 2.5 uM, 48 hours, fold change in LMP1 transcript vs vehicle.
Where [3] appears, read: read-out: Replicate 2-LMP1 Fold Increase, Kem I cells, 2.5 uM, 48 hours, fold change in LMP1 transcript vs vehicle.

Consider `CN(Cc1cnc2nc(N)nc(N)c2n1)c1ccc(C(=O)N[C@@H](CCC(=O)O)C(=O)O)cc1` [Abitrexate (Methotrexate)], for which the “Average LMP1 Fold Increase” value is reported as 3.17, the “Replicate 1-LMP1 Fold Increase” value turned out to be 3.70 and the “Replicate 2-LMP1 Fold Increase” value was 2.64.
In the case of `NC(=O)c1ncn([C@@H]2O[C@H](CO)[C@@H](O)[C@H]2O)c1N` [Acadesine], the fold induction at 2.5 µM runs as follows: under setting [1], 0.58; under setting [2], 0.57; under setting [3], 0.59.
The matching figures for `COc1ccc2cccc(CCNC(C)=O)c2c1` [Agomelatine]: 0.43, 0.34 and 0.52.
For the compound `Oc1ncnc2[nH]ncc12` [Allopurinol], the fold induction at 2.5 µM reads like this: under setting [1], 0.11; under setting [2], 0.09; under setting [3], 0.13.
The matching figures for `CCOC(=O)[C@H]1O[C@@H]1C(=O)N[C@@H](CC(C)C)C(=O)NCCC(C)C` [Aloxistatin]: 0.11, 0.1 and 0.12.
The matching figures for `CCOC(=O)C1=C(COCCN)NC(C)=C(C(=O)OC)C1c1ccccc1Cl` (stereo not drawn) [Amlodipine]: 2.06, 0.51 and 3.61.
As to `COc1cc(F)c(C(C)C)cc1-c1ccc(C(F)(F)F)cc1CN1C(=O)O[C@H](c2cc(C(F)(F)F)cc(C(F)(F)F)c2)[C@@H]1C` [Anacetrapib (MK-0859)], the “Average LMP1 Fold Increase” value is 0.63, the “Replicate 1-LMP1 Fold Increase” value was 0.80 and the “Replicate 2-LMP1 Fold Increase” value amounted to 0.46.
As to `CC(C)(C#N)c1cc(Cn2cncn2)cc(C(C)(C)C#N)c1` [Anastrozole], the fold induction at 2.5 µM came out at 0.94 under setting [1], 0.45 under setting [2] and 1.42 under setting [3].
In the case of `COc1ccc(C(=O)N2CCCC2=O)cc1` [Aniracetam], the fold induction at 2.5 µM was 0.55 under setting [1], 0.72 under setting [2] and 0.39 under setting [3].
The matching figures for `N#CC1(c2ccc(NC(=O)c3cccnc3NCc3ccncc3)cc2)CCCC1` [Apatinib]: 0.87, 1.23 and 0.5.
The matching figures for `O=c1cc(-c2ccc(O)cc2)oc2cc(O)cc(O)c12` [Apigenin]: 0.58, 0.69 and 0.47.
As to `COc1ccc(-n2nc(C(N)=O)c3c2C(=O)N(c2ccc(N4CCCCC4=O)cc2)CC3)cc1` [Apixaban], the fold induction at 2.5 µM under setting [1] came to 0.32, the fold induction at 2.5 µM under setting [2] stood at 0.4 and the fold induction at 2.5 µM under setting [3] was 0.24.
For `O=C1C(=O)N(Cc2ccc(Cl)c(Cl)c2)c2ccccc21` [Apoptosis Activator 2], the “Average LMP1 Fold Increase” value was determined as 0.82, the “Replicate 1-LMP1 Fold Increase” value was 0.87 and the “Replicate 2-LMP1 Fold Increase” value came out at 0.78.
On to `C[C@@H](O[C@H]1OCCN(Cc2n[nH]c(=O)[nH]2)[C@H]1c1ccc(F)cc1)c1cc(C(F)(F)F)cc(C(F)(F)F)c1` [Aprepitant], for which the fold induction at 2.5 µM by setting is: under setting [1], 0.99; under setting [2], 1.58; under setting [3], 0.41.
In the case of `O=C(O)c1cccc(-c2noc(-c3ccccc3F)n2)c1` [Ataluren (PTC124)], the “Average LMP1 Fold Increase” value is reported as 0.49, the “Replicate 1-LMP1 Fold Increase” value is reported as 0.50 and the “Replicate 2-LMP1 Fold Increase” value stood at 0.48.
As to `CN(C)C(=O)Nc1cccc(-c2ccc(N(C)C)cc2)c1` [Atglistatin], the “Average LMP1 Fold Increase” value is listed as 0.99, the “Replicate 1-LMP1 Fold Increase” value came out at 0.75 and the “Replicate 2-LMP1 Fold Increase” value was found to be 1.23.
On the same counts, the results for `CC(C)c1c(C(=O)Nc2ccccc2)c(-c2ccccc2)c(-c2ccc(F)cc2)n1CC[C@@H](O)C[C@@H](O)CC(=O)[O-].CC(C)c1c(C(=O)Nc2ccccc2)c(-c2ccccc2)c(-c2ccc(F)cc2)n1CC[C@@H](O)C[C@@H](O)CC(=O)[O-].[Ca+2]` [Atorvastatin Calcium] are 0.09, 0.05 and 0.14.
Turning to `Cn1c(=O)n(-c2ccc(C(C)(C)C#N)cc2)c2c3cc(-c4cnc5ccccc5c4)ccc3ncc21` [BEZ 235], the fold induction at 1 µM amounted to 13.3 (read-out: Average LMP1 Fold Increase, Kem I cells, 1 uM, 48 hours, average of replicates 1 and 2); 17.4 (read-out: Replicate 1-LMP1 Fold Increase, Kem I cells, 1 uM, 48 hours, fold change in LMP1 transcript vs vehicle); 9.2 (read-out: Replicate 2-LMP1 Fold Increase, Kem I cells, 1 uM, 48 hours, fold change in LMP1 transcript vs vehicle).
As for `CCN1CCN(c2ccc(Nc3cc(N(C)C(=O)Nc4c(Cl)c(OC)cc(OC)c4Cl)ncn3)cc2)CC1` [BGJ398 (NVP-BGJ398)], the “Average LMP1 Fold Increase” value is reported as 0.85, the “Replicate 1-LMP1 Fold Increase” value is reported as 1.02 and the “Replicate 2-LMP1 Fold Increase” value was found to be 0.69.
Consider `CC[C@@H]1C(=O)N(C)c2cnc(Nc3ccc(C(=O)NC4CCN(C)CC4)cc3OC)nc2N1C1CCCC1` [BI 2536], for which the fold induction at 2.5 µM is 12.6 under setting [1], 23.3 under setting [2] and 1.89 under setting [3].
`CC(C)CCN1c2nc(Nc3cc(F)c(O)c(F)c3)ncc2N(C)C(=O)C1C` (stereo not drawn) [BI-D1870]: the “Average LMP1 Fold Increase” value worked out at 0.50, the “Replicate 1-LMP1 Fold Increase” value was determined as 0.47 and the “Replicate 2-LMP1 Fold Increase” value was determined as 0.52.
On the same counts, the results for `C/C(=C\C(=O)Nc1ccccc1C(=O)O)c1ccc2ccccc2c1` [BIBR 1532] are 0.77, 0.63 and 0.91.
`COc1ccc2c(c1)c(CC(=O)N1CCOCC1)c(C)n2C(=O)c1ccc(Cl)cc1` [BML-190]: the “Average LMP1 Fold Increase” value is 0.77, the “Replicate 1-LMP1 Fold Increase” value amounted to 1.01 and the “Replicate 2-LMP1 Fold Increase” value is listed as 0.53.
On the same counts, the results for `COc1ccnc2[nH]cc(C(=O)C(=O)N3CCN(C(=O)c4ccccc4)C[C@H]3C)c12` [BMS-378806] are 0.64, 0.75 and 0.53.
For `Cn1c(N2CCCCS2(=O)=O)nc(C(=O)NCc2ccc(F)cc2)c(O)c1=O` [BMS-707035], the fold induction at 2.5 µM under setting [1] came to 43.1, the fold induction at 2.5 µM under setting [2] was determined as 18.2 and the fold induction at 2.5 µM under setting [3] came out at 68.
Regarding `O=C(Oc1cc(S(=O)(=O)c2ccccc2)ccc1[N+](=O)[O-])c1ccc(Cl)cc1` [BTB06584], the “Average LMP1 Fold Increase” value is reported as 1.22, the “Replicate 1-LMP1 Fold Increase” value was found to be 1.23 and the “Replicate 2-LMP1 Fold Increase” value is listed as 1.20.
As to `O=C(Nc1cccc(Nc2ncc(Br)c(NCCc3cnc[nH]3)n2)c1)N1CCCC1` [BX-912], the “Average LMP1 Fold Increase” value is 0.37, the “Replicate 1-LMP1 Fold Increase” value came to 0.40 and the “Replicate 2-LMP1 Fold Increase” value worked out at 0.35.
The matching figures for `CNC(=O)[C@H](Cc1ccccc1)NC(=O)[C@H](CC(C)C)[C@H](CSc1cccs1)C(=O)NO` [Batimastat (BB-94)]: 0.46, 0.38 and 0.55.
For `Cc1c(-c2ccc(O)cc2)n(Cc2ccc(OCCN3CCCCCC3)cc2)c2ccc(O)cc12` [Bazedoxifene HCl], the fold induction at 2.5 µM under setting [1] was 0.54, the fold induction at 2.5 µM under setting [2] was determined as 0.52 and the fold induction at 2.5 µM under setting [3] stood at 0.56.
